Consider 2 substances from patent publication US20180222836A1, “Process for the Preparation of Pharmaceutical Grade Ferric Citrate” (Lupin Limited, priority 2015, published 2018).

This data set can be described thus: BET active specific surface area (U.S. Pharmacopeia General Chapter <846>). It is filed as physicochemical. To be noted: pharmaceutical grade ferric citrate, dried powder from one-pot process. On the procedure: According to the present invention, the pharmaceutical grade ferric citrate having BET surface area in the range of […]. the method of analysis for BET surface are of the ferric citrate is performed as per U.S. Pharmacopeia General Chapter <846>.

As to ferric citrate [EXAMPLE-1], the “BET Active Specific Surface Area” value turned out to be 6.51 m^2/gm.
Under ferric citrate [EXAMPLE-2] stands 6.47 m^2/gm.
